Experiments:
[1] = target: Dual specificity protein kinase CLK2 (Homo sapiens) (UniProt P49760); experiment: CLK2 Invitrogen selectivity data (BI); conditions: Compound concentration 3.0 uM
[2] = target: ALK tyrosine kinase receptor (Homo sapiens) (UniProt Q9UM73); experiment: ALK Invitrogen selectivity data (BI); conditions: Compound concentration 3.0 uM
[3] = target: Glutamate receptor ionotropic, kainate 1 (Rattus norvegicus) (UniProt P22756); experiment: KAINATE/R Eurofins-Panlabs selectivity data (BI); conditions: Compound concentration 10.0 uM
hERG (KCNH2) = hERG (KCNH2) (Homo sapiens, UniProt Q12809); experiment: K+/HERG Eurofins-Panlabs selectivity data (BI); conditions: compound concentration 10 uM, read-out: % Ctrl
[4] = target: Protein kinase C delta type (Homo sapiens) (UniProt Q05655); experiment: PRKCD Invitrogen selectivity data (BI); conditions: Compound concentration 3.0 uM
[5] = tested on: Epidermal growth factor receptor (Homo sapiens), P00533 [L858R]; experiment: EGFR L858R Invitrogen selectivity data (BI); conditions: Compound concentration 3.0 uM
[6] = target: T1, Tyrosine-protein kinase TXK (Homo sapiens) (UniProt P42681); experiment: TXK Invitrogen selectivity data (BI); conditions: Compound concentration 3.0 uM
T1 sequence (whole entry): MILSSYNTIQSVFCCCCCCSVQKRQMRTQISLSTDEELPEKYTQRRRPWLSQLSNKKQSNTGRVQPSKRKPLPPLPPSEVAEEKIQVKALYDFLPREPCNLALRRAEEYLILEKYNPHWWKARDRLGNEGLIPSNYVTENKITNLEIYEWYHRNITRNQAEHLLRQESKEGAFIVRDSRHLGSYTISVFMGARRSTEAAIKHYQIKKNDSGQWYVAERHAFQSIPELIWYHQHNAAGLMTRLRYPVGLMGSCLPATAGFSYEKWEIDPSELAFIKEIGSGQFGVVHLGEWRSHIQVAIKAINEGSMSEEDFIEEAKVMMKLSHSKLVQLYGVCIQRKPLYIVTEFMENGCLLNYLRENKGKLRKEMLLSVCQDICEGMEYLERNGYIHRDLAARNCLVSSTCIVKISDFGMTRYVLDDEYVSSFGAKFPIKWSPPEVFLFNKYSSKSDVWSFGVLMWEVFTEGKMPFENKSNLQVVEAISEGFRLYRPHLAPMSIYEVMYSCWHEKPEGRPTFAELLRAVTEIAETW

[7] = target: Glucocorticoid receptor (Homo sapiens) (UniProt P04150); experiment: GLUCOCORTICO Eurofins-Panlabs selectivity data (BI); conditions: Compound concentration 10.0 uM
[8] = target: Mu-type opioid receptor (Homo sapiens) (UniProt P35372); experiment: MU/H Cerep selectivity data (BI); conditions: Compound concentration 20.0 uM
[9] = target: Cannabinoid receptor 1 (Homo sapiens) (UniProt P21554); experiment: CB1 Eurofins-Panlabs selectivity data (BI); conditions: Compound concentration 10.0 uM
[10] = target: Fibroblast growth factor receptor 1 (Homo sapiens) (UniProt P11362); experiment: FGFR1 Invitrogen selectivity data (BI); conditions: Compound concentration 3.0 uM
[11] = target: B2 bradykinin receptor (Homo sapiens) (UniProt P30411); experiment: B2/H Eurofins-Panlabs selectivity data (BI); conditions: filed as antagonist, Compound concentration 10.0 uM
[12] = target: T2, Serine/threonine-protein kinase Nek9 (Homo sapiens) (UniProt Q8TD19); experiment: NEK9 Invitrogen selectivity data (BI); conditions: Compound concentration 3.0 uM
T2 sequence (whole entry): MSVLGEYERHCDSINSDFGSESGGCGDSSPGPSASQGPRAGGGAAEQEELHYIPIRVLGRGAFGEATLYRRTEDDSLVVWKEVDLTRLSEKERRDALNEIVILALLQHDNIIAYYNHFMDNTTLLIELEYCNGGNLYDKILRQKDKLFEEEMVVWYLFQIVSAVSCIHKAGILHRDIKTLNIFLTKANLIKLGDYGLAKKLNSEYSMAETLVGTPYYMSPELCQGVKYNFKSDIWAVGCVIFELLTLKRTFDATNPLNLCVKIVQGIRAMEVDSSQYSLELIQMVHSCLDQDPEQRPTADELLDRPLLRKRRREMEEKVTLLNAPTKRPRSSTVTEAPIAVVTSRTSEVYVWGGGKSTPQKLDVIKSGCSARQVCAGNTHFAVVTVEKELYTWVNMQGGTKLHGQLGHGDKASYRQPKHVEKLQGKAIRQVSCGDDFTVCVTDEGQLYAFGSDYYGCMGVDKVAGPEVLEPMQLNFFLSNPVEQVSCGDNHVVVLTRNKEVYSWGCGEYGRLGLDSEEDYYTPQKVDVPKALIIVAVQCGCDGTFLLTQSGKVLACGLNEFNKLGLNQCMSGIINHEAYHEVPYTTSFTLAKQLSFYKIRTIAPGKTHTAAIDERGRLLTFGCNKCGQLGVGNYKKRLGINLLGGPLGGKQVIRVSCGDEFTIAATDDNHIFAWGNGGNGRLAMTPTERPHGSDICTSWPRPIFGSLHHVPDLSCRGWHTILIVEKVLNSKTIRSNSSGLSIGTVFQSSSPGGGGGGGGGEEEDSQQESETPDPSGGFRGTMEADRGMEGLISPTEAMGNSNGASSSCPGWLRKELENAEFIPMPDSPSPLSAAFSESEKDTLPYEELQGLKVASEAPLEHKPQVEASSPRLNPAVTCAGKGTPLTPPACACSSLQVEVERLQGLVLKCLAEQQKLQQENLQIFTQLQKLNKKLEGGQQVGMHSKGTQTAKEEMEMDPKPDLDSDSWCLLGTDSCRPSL

Sequence of Mu-type opioid receptor (Homo sapiens) (P35372 whole entry): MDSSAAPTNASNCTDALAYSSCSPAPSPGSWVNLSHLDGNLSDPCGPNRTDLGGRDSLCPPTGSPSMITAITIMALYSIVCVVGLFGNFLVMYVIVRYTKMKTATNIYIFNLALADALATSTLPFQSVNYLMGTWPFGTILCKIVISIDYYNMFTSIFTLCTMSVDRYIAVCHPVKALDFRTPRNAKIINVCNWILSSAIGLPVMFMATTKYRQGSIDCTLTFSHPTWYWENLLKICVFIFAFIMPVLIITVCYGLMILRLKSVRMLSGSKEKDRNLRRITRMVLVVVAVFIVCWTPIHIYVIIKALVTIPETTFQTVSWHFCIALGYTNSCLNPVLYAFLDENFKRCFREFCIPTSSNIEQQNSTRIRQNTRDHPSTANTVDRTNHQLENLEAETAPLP
Sequence of Fibroblast growth factor receptor 1 (Homo sapiens) (P11362 22-822 limits assumed): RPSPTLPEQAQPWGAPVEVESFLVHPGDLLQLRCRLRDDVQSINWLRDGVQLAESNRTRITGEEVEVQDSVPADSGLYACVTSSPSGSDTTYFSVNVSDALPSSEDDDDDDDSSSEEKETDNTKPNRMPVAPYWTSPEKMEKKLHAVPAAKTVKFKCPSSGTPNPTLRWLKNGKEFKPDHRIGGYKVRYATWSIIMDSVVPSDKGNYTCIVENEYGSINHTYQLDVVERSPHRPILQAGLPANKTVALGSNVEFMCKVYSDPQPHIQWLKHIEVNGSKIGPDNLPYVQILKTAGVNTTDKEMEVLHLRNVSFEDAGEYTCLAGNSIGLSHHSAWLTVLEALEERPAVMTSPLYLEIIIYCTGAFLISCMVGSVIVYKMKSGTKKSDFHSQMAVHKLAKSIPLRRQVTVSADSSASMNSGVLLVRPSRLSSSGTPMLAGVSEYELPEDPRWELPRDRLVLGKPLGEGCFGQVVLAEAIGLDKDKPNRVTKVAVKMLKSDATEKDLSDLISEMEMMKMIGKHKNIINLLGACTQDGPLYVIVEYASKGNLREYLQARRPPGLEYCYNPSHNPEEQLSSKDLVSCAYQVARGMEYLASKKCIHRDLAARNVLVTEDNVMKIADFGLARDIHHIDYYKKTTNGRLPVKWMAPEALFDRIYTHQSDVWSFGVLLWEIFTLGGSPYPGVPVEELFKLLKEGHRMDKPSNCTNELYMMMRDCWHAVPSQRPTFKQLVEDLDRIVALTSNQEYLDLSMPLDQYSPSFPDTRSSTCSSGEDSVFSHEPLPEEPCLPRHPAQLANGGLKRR
Sequence of hERG (KCNH2) (Q12809 whole entry): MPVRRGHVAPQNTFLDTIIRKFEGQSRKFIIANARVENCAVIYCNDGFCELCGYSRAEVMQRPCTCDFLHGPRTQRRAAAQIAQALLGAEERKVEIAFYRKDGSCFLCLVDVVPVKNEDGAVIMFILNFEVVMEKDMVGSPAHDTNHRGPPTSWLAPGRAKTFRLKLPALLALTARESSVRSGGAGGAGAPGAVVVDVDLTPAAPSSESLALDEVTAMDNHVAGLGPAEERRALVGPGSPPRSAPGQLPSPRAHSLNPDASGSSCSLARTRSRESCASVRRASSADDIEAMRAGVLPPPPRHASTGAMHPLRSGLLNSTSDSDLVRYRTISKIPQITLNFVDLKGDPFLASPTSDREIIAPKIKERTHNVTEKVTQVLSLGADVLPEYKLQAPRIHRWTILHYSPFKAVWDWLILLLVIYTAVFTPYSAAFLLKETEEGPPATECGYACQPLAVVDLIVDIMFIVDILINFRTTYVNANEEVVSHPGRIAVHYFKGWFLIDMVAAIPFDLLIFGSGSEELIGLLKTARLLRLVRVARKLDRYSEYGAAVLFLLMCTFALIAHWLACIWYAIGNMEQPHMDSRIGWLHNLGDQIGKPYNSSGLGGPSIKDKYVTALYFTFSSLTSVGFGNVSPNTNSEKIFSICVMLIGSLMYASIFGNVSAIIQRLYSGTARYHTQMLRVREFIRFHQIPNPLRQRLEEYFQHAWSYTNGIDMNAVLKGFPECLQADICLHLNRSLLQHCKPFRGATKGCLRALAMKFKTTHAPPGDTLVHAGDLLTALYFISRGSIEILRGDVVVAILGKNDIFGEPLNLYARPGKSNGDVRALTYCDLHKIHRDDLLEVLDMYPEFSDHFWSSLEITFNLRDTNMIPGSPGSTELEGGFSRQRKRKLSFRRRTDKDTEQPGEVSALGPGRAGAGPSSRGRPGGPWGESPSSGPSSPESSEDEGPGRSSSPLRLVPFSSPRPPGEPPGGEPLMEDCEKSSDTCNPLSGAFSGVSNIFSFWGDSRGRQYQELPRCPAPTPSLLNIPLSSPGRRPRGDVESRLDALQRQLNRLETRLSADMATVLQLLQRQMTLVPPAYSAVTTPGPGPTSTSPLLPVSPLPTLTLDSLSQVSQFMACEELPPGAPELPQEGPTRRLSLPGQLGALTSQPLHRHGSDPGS
Sequence of ALK tyrosine kinase receptor (Homo sapiens) (Q9UM73 19-1620 limits assumed): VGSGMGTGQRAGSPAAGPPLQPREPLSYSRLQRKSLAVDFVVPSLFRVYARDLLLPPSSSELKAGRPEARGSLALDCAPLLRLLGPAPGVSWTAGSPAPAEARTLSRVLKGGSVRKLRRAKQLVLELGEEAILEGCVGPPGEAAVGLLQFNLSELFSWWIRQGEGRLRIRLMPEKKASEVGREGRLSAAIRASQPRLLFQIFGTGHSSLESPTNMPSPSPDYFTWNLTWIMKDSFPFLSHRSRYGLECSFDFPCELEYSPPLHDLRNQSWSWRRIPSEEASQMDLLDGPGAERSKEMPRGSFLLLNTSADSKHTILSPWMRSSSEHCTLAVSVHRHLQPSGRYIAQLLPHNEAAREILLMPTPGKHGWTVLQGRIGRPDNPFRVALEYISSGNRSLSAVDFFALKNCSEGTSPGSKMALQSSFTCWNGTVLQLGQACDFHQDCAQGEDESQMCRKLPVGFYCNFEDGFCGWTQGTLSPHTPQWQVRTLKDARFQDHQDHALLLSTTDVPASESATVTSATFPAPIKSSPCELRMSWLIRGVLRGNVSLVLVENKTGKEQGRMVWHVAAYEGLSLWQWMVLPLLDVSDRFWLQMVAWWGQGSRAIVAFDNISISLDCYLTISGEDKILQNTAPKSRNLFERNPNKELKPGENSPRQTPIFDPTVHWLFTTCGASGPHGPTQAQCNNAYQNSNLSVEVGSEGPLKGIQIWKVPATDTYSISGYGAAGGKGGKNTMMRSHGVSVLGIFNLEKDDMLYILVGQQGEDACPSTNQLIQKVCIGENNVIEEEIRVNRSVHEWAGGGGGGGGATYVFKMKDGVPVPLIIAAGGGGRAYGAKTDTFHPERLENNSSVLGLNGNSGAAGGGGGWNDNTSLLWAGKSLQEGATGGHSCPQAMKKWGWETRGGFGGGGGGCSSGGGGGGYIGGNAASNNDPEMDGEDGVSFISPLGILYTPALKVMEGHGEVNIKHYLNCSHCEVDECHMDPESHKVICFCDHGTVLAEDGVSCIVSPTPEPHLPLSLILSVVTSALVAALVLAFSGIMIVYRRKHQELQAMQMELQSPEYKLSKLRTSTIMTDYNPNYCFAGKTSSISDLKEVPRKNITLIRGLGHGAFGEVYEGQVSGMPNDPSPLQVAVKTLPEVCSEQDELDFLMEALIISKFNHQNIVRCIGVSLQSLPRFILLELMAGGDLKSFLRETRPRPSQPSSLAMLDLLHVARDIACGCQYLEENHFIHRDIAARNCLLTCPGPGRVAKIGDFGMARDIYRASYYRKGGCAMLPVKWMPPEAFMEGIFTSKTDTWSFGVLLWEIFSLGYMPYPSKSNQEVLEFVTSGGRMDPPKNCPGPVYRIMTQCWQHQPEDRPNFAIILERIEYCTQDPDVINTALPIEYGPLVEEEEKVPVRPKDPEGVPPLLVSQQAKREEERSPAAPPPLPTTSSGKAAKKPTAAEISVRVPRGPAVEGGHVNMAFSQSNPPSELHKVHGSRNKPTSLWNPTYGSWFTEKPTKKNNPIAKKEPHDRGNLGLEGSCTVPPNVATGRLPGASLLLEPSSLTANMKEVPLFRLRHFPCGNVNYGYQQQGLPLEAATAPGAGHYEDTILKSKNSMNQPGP
Sequence of B2 bradykinin receptor (Homo sapiens) (P30411 whole entry): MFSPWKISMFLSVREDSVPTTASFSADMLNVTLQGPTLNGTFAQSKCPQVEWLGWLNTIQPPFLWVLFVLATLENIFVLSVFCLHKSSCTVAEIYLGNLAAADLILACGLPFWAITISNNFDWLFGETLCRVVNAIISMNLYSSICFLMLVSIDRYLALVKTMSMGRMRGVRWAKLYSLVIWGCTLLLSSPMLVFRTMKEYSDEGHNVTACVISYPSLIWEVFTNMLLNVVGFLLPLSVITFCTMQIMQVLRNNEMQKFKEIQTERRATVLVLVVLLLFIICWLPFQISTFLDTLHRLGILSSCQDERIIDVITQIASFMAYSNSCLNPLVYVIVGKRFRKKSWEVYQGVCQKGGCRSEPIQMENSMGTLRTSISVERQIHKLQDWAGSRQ
Sequence of Cannabinoid receptor 1 (Homo sapiens) (P21554 whole entry): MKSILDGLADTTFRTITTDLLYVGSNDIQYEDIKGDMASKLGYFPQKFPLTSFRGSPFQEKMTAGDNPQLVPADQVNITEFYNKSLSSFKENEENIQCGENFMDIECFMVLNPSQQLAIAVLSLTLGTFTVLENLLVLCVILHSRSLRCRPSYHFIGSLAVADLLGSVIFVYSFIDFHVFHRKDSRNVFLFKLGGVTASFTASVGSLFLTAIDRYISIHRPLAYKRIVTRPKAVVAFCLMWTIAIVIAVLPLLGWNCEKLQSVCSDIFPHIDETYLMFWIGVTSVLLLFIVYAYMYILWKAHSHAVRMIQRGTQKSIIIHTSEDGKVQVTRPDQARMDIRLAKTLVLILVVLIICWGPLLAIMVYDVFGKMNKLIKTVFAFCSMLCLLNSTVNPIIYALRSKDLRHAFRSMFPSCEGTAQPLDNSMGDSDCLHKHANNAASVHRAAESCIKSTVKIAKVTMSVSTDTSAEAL

CN(C)C(=O)Cn1cc(-c2nc([C@@](C)(c3ccc(-c4cnc(N)nc4)cc3)C3CC3)no2)cn1 [BI 665915]
residual activity [1]: 95.5% | residual activity [2]: 97% | residual activity [3]: 90% | activity at 10 µM (hERG (KCNH2)): 90% (not active) | residual activity [4]: 103% | residual activity [5]: 96% | residual activity [6]: 95% | residual activity [7]: 111% | residual activity [8]: 103% | residual activity [9]: 91% | residual activity [10]: 100% | residual activity [11]: 123% | residual activity [12]: 106%
